Our source for the TGI values is PubChem BioAssay (NCI).

Some test systems named below: DMS 114 small cell lung; HL-60(TB) leukemia; HOP-18 NSCLC; LXFL 529 NSCLC; M19-MEL melanoma; NCI-H23 lung; SN12C renal; SNB-19 CNS; SR leukemia; BT-549 breast; DU-145 prostate; MDA-N; T-47D breast.
Holding throughout (test): NCI-60 cell line screen, 48 h

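Step 1: Grow cells in 96-well plates. Step 2: Expose to compound for 48 hours at 5 concentrations. Step 3: Interpolate endpoints linearly; if unreached, use highest concentration. TGI denotes the concentration required for complete inhibition of growth.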

Consider `O=C(Cc1ccccc1)NN1C(=O)C(Cl)C1c1ccccc1O` (configuration not stated), for which the TGI with DMS 114 small cell lung is 46.5 µM; in the test with HL-60(TB) leukemia it was 18.8 µM; in the test on HOP-18 NSCLC, 61.2 µM; with LXFL 529 NSCLC it was over 100 µM; in the test with M19-MEL melanoma it was 89.6 µM; in the test on NCI-H23 lung, over 100 µM. Besides, the results for the TGI in the test on SN12C renal, with SNB-19 CNS and in the test on SR leukemia were over 100 µM, 82 µM and over 100 µM, respectively.

For the compound `COc1cc(/C=C(/C#N)C(N)=O)ccc1O`, the TGI with DMS 114 small cell lung, in the test with HL-60(TB) leukemia, with HOP-18 NSCLC, with M19-MEL melanoma, with NCI-H23 lung and with SN12C renal was over 100 µM in each case. For the same compound, the TGI in the test with SNB-19 CNS was over 100 µM.

`Cc1ccc(CC(C)N)cc1` (configuration not stated): the TGI in the test on DMS 114 small cell lung, in the test with HL-60(TB) leukemia, with HOP-18 NSCLC, with LXFL 529 NSCLC, in the test on NCI-H23 lung and with SN12C renal was over 100 µM throughout. The compound also showed a TGI in the test with SNB-19 CNS of over 100 µM.

With `COc1cc2c(cc1OC)C1(c3ccc(Cl)cc3)ON=C(c3ccccc3)N1CS2` (configuration not stated), the TGI in the test on DMS 114 small cell lung, in the test on HL-60(TB) leukemia, with HOP-18 NSCLC, in the test with LXFL 529 NSCLC, with M19-MEL melanoma and in the test on NCI-H23 lung was over 100 µM each time. Further, the TGI in the test on SN12C renal, with SNB-19 CNS and with SR leukemia was over 100 µM each time.

As to `CCOc1cc(NC(C)=O)ccc1C(=O)NN1C(=O)C(Cl)C1c1ccco1` (configuration not stated), the TGI is 30.4 µM in the test on BT-549 breast; 31.1 µM in the test on DU-145 prostate; 43.4 µM in the test with HL-60(TB) leukemia; 36.1 µM with MDA-N; 39 µM in the test on NCI-H23 lung; 32.8 µM in the test with SN12C renal. The TGI in the test on SNB-19 CNS was 32.1 µM; in the test on SR leukemia, 35.9 µM; with T-47D breast it was 40.3 µM.

With `CC(NC(C)(C)C)C(=O)c1cccc(Cl)c1` (configuration not stated), the TGI in the test on DMS 114 small cell lung, in the test with LXFL 529 NSCLC, in the test with M19-MEL melanoma, in the test on NCI-H23 lung and in the test on SN12C renal was over 100 µM throughout.

As for `Cc1ccc(/C=C2\CCCC(CN3CCCCC3)C2=O)cc1` (configuration not stated), the TGI in the test with BT-549 breast was 4.84 µM; in the test with DU-145 prostate it was 23.9 µM; in the test with HL-60(TB) leukemia, over 100 µM; in the test with MDA-N, 7.78 µM; in the test on NCI-H23 lung it was 4.86 µM; with SN12C renal, 8.4 µM. Further, the values for the TGI with SNB-19 CNS, in the test on SR leukemia and in the test on T-47D breast were 29.6 µM, over 100 µM and 3.41 µM, respectively.

In the case of `Cc1ccc2c(=O)cc(-c3ccc(-c4ccccc4)s3)[nH]c2n1`, the TGI in the test with BT-549 breast, in the test with DU-145 prostate, in the test on HL-60(TB) leukemia, in the test with MDA-N, in the test on NCI-H23 lung and in the test on SN12C renal was over 100 µM in each case. The values for the TGI in the test on SNB-19 CNS, in the test on SR leukemia and with T-47D breast were over 100 µM, 8.35 µM and over 100 µM, respectively.

Regarding `COC(=O)C1=C(OC(=O)c2ccccc2)C(C(=O)OC)[C@]2(O)[C@@H](C(=O)OC)[C@H]1C[C@@H](c1ccccc1)[C@@H]2C(=O)OC` (some centres not stated), the TGI with BT-549 breast is 75.6 µM; in the test on DU-145 prostate, 30.3 µM; in the test with HL-60(TB) leukemia, 21.1 µM; in the test on MDA-N, 3.95 µM; in the test with NCI-H23 lung, 32.7 µM; in the test on SN12C renal it was 43.2 µM. Further, the TGI came to 41.7 µM in the test on SNB-19 CNS, 31.3 µM in the test on SR leukemia and 33.8 µM in the test on T-47D breast.

`Cc1nc(-c2ccc(N=Cc3ccc(N(CCOS(C)(=O)=O)CCOS(C)(=O)=O)cc3C)cc2)cs1`: the TGI in the test with BT-549 breast is over 100 µM; with DU-145 prostate it was over 100 µM; with HL-60(TB) leukemia it was 47.3 µM; in the test with MDA-N, over 100 µM; with NCI-H23 lung it was over 100 µM; with SN12C renal it was over 100 µM. Moreover, the TGI in the test on SNB-19 CNS is over 100 µM; in the test with SR leukemia, over 100 µM; in the test with T-47D breast it was 90.2 µM.

As for `CCOC(=O)CSc1nnc(C(Sc2nc(-c3ccccc3)c(-c3ccccc3)[nH]2)C(C)C)n1-c1ccccc1` (configuration not stated), the TGI with BT-549 breast was 52.9 µM; with DMS 114 small cell lung, over 10 µM; in the test on DU-145 prostate it was over 100 µM; in the test on HL-60(TB) leukemia it was over 31.6 µM; with LXFL 529 NSCLC, over 10 µM; in the test with M19-MEL melanoma, over 10 µM. Also, the TGI with MDA-N is over 100 µM; in the test on NCI-H23 lung, over 10 µM; in the test with SN12C renal it was 26.1 µM; in the test on SNB-19 CNS, over 31.6 µM; in the test on SR leukemia, over 89.6 µM; in the test with T-47D breast, over 100 µM.

For `Nc1ccc(CCN2CCN(CCCc3ccccc3)CC2)cc1`, the TGI in the test with BT-549 breast, in the test on DU-145 prostate, in the test on HL-60(TB) leukemia, with MDA-N, in the test on NCI-H23 lung and in the test with SN12C renal was over 100 µM each time. Further, the TGI in the test on SNB-19 CNS was over 100 µM; in the test with SR leukemia it was over 100 µM; in the test with T-47D breast, 95.8 µM.

`CCCc1ccc(NCc2cc(OC)c(OC)c(OC)c2)cc1`: the TGI in the test on DMS 114 small cell lung was 29.8 µM; in the test with HOP-18 NSCLC, over 100 µM; in the test with LXFL 529 NSCLC, 40.5 µM; with M19-MEL melanoma, 44.6 µM; with NCI-H23 lung, 69.2 µM; in the test with SN12C renal, 53.2 µM. In the test on SNB-19 CNS, this compound displayed a TGI of over 100 µM.

As for `Cc1cc(O)c(C(C)C)cc1C1(c2cc(C(C)C)c(O)cc2C)OC(=O)c2ccccc21`, the TGI in the test with BT-549 breast came out at 5.53 µM; with DU-145 prostate, 4.41 µM; with HL-60(TB) leukemia it was 1.24 µM; in the test on MDA-N, 3.11 µM; in the test on NCI-H23 lung, 5.13 µM; in the test with SN12C renal it was 4.35 µM. Further, the TGI in the test with SNB-19 CNS was over 35.1 µM; with SR leukemia, 4.02 µM; in the test on T-47D breast it was 6.44 µM.

On to `N#C/C(=C\c1c[nH]c2ccccc12)C(=O)c1ccc(O)c(O)c1`, for which the TGI in the test with BT-549 breast is 65.1 µM; in the test on DU-145 prostate, over 100 µM; with HL-60(TB) leukemia, 59.5 µM; with HOP-18 NSCLC it was 93.5 µM; in the test on LXFL 529 NSCLC, over 100 µM; in the test with M19-MEL melanoma, over 100 µM. Moreover, the TGI with MDA-N is over 100 µM; in the test on NCI-H23 lung, over 100 µM; in the test with SN12C renal, over 91.5 µM; in the test on SNB-19 CNS it was 98.1 µM; in the test on SR leukemia, over 31.6 µM; with T-47D breast it was over 100 µM.

As to `C[C@H]1C=C2[C@@H]3CC(C)(C(=O)O)CC[C@]3(C)CC[C@]2(C)[C@]2(C)CC[C@H]3C(C)(C)[C@@H](OC(=O)c4cccc5c(=O)c6ccccc6[nH]c45)CC[C@]3(C)[C@@H]12` (some centres not stated), the TGI with BT-549 breast, in the test on DU-145 prostate, in the test with HL-60(TB) leukemia, with MDA-N, in the test on NCI-H23 lung and in the test on SN12C renal was over 100 µM each time. Further, the TGI with SNB-19 CNS was over 100 µM; with SR leukemia it was over 100 µM; in the test with T-47D breast, 87.5 µM.

With `CC(C)[C@@H]1ON1C(C)c1ccccc1` (some centres not stated), the TGI with BT-549 breast, with DU-145 prostate, in the test on HL-60(TB) leukemia, in the test with MDA-N, with NCI-H23 lung and in the test on SN12C renal was over 100 µM in each case. In addition, the TGI in the test with SNB-19 CNS, in the test on SR leukemia and with T-47D breast was over 100 µM each time.

On to `COC(=O)c1c(O)ccc2c1C1(Cc3ccccc3C1=O)C(O)O2` (configuration not stated), for which the TGI was 37 µM in the test with BT-549 breast; over 100 µM in the test on DU-145 prostate; 40.4 µM with HL-60(TB) leukemia; 28.7 µM in the test on MDA-N; over 100 µM in the test with NCI-H23 lung; 86.2 µM with SN12C renal. Further, the TGI in the test on SNB-19 CNS is over 100 µM; in the test with SR leukemia, 25.3 µM; in the test with T-47D breast, 45.3 µM.

As to `OC(c1ccc(-c2ccccc2)cc1)C(F)(F)c1nc2ccccc2o1` (configuration not stated), the TGI is over 100 µM in the test on BT-549 breast; over 82.7 µM in the test with DU-145 prostate; over 74.1 µM in the test on HL-60(TB) leukemia; over 100 µM with MDA-N; over 100 µM with NCI-H23 lung; over 100 µM in the test on SN12C renal. Also, the TGI in the test with SNB-19 CNS, in the test on SR leukemia and with T-47D breast was over 100 µM throughout.

As for `COC(=O)c1c(OC(C)=O)ccc2c1c1c(OC(C)=O)c3ccccc3c(OC(C)=O)c1n2Cc1ccccc1`, the TGI with BT-549 breast is 28.8 µM; in the test on DU-145 prostate, 45.5 µM; with HL-60(TB) leukemia, 26.6 µM; in the test on MDA-N, 41.1 µM; in the test on NCI-H23 lung, 18.3 µM; in the test with SN12C renal, over 50 µM. For the same compound, the TGI is over 50 µM with SNB-19 CNS, over 50 µM in the test with SR leukemia and 10.5 µM in the test on T-47D breast.

For `Cc1cc(NCCCCCCCNc2cc(C)nc3cc([N+](=O)[O-])ccc23)c2ccc([N+](=O)[O-])cc2n1`, the TGI with BT-549 breast is 67.3 µM; with DMS 114 small cell lung it was 3.28 µM; with DU-145 prostate, 11 µM; with HOP-18 NSCLC it was 31.1 µM; with LXFL 529 NSCLC, 3.14 µM; with M19-MEL melanoma, 35.9 µM. The TGI in the test with MDA-N was 3.18 µM; in the test on NCI-H23 lung, over 24.9 µM; in the test with SN12C renal, 13.4 µM; with SNB-19 CNS, 39.5 µM; in the test with T-47D breast, 18.5 µM.

Take `Nc1ccc(C(=O)NN2C(=O)C(Cl)C2c2ccccc2)cc1` (configuration not stated): the TGI with DMS 114 small cell lung, in the test with LXFL 529 NSCLC, with M19-MEL melanoma, with NCI-H23 lung, with SN12C renal and with SNB-19 CNS was over 100 µM in each case.

As to `CCOC(=O)c1ccc(C(=O)C(C(C)=O)C(=O)OC(C)(C)C)[nH]1` (configuration not stated), the TGI in the test on BT-549 breast, in the test with DU-145 prostate, with HL-60(TB) leukemia, in the test on MDA-N, in the test on NCI-H23 lung and with SN12C renal was over 100 µM in each case. In addition, the TGI in the test on SNB-19 CNS, in the test with SR leukemia and in the test on T-47D breast was over 100 µM each time.
